We go through 1 compound from US8252832B2, “Kinesin inhibitors as cancer therapeutics” (Novartis AG, priority 2007, dated 2012).

The subject of this assay is KMS-11-luc disseminated disease. The assay is described as follows: KMS-11-luc disseminated disease model, tumor response and survival. The format is in vivo, mouse. As for the experimental part: Experiments were performed using immunodeficient SCID-Beige female mice approximately 7-8 weeks old (Charles River Laboratories, Wilmington, Mass.). […] Routine animal care and assurance of welfare were as described above.
Human KMS-11-luc multiple myeloma cells were obtained from the laboratory of Suzanne Trudel at the University of Toronto (Ontario, Canada) and tested to be free of Mycoplasma sp. and murine viruses in the IMPACT1 PCR assay panel (RADIL, University of Missouri, Columbia, Mo.). Prior to our receiving this cell line, it had been stably engineered to express luciferase by retroviral transfection of the pGC-gfp/luc vector. KMS-11-luc cells were grown in Iscove's medium supplemented with 2 mmol/L L-glutamine (Mediatech, Inc., Hemdon, Va.) and 10% fetal bovine serum (JRH Biosciences, catalog #12003-1000M). These cells were grown as suspension cultures, maintained at 37° C. in a humidified atmosphere containing 5% carbon dioxide. Cells were cultured for fewer than 10 passages prior to use. Cells were harvested at approximately 2 million cells/mL, and centrifuged at ˜800×g for 5 minutes at 4° C. and then resuspended in a 1:1 mixture of cold Hank's balanced salt solution (HBSS) and Matrigel™ (Mediatech Inc., catalog #21-021-CV; BD Biosciences, catalog #354234, respectively) at a concentration of 50 million cells/mL for implantation subcutaneously (injection volume of 0.2 mL). Alternatively, for the disseminated disease model, cells were prepared only in cold HBSS at a concentration of 100 million cells/mL for intravenous (i.v.) implantation via the tail vein (injection volume of 0.1 mL).
Compound IIa and SB-715992 (free base) were formulated in 20% Captisol for a dose volume of 8 mL/kg. Doses were adjusted to each animal's body weight.
For the efficacy evaluation in the disseminated disease model, 10 million cells in HBSS were injected i.v. via the tail vein in a total volume of […]. Forty mice were randomized and enrolled on study 10 days post-implant, with a mean photon count in the leg bones (right+left) of approximately 9×10^5 photons/second, as determined by bioluminescence imaging. Approximately 10 minutes prior to imaging, mice were injected i.p. with 150 mg/kg luciferin (Xenogen Corporation, Alameda, Calif.), followed by anesthetization with isoflurane. Photon emission was measured using a charge coupled device camera in the IVIS imaging system (Xenogen Corporation). Briefly, a gray-scale image of the mice was captured, followed by an overlay of a bioluminescence map representing the spatial distribution of photons detected from cleaved luciferin in the cancer cells expressing luciferase. Signal intensity was quantified using a customized version of the IGOR Pro version 4.09A Software (WaveMetrics, Inc., Lake Oswego, Oreg.) called Living Image version 2.50.2 (Xenogen). The sum of all detected photon counts from the right+left legs were determined. Bioluminescence of cancer cells in the animals was measured by imaging on designated days until the first mice developed hind limb paralysis due to disease burden, the main end point for when to humanely euthanize mice. The day of euthanasia for each mouse was recorded, and the remaining percentage of mice surviving was plotted over time (Kaplan-Meier survival analysis). P values were calculated using the log-rank test (GraphPad Prism 4.0 software) to assess differences between treated and control groups (p<0.05 was considered significant). […] Data analysis was as described above.

Marks after values point to notes of the source that are not given here.

For the compound `CC(C)(C)[C@H](c1nc(-c2cc(F)ccc2F)cn1Cc1ccccc1)N(CC[C@H](N)CF)C(=O)CO` [Compound IIa], the “T/C, Day 13 (%)” value (0.25 mg/kg, q4d × 3, i.v) is 15% and the “T/C, Day 13 (%)” value (0.5 mg/kg, q4d × 3, i.v) is recorded as 0.7* %. Besides, the “Δ Tumor Bioluminescence, Day 13” value runs as follows: (0.25 mg/kg, q4d × 3, i.v) 2.2 × 10^7 ± 1.1 × 10^6 photons/sec; (0.5 mg/kg, q4d × 3, i.v) 1.1 × 10^6 ± 5.8 × 10^5 photons/sec; (1 mg/kg, q4d × 3, i.v.) −4.3 × 10^5 ± 1.7 × 10^5 photons/sec. Moreover, the “Mean Day of Survival” value is 29** day (0.25 mg/kg, q4d × 3, i.v., listed as COMPOUND IIa); 29 days (0.25 mg/kg, q4d × 3, i.v., listed as compound IIa); 35** day (0.5 mg/kg, q4d × 3, i.v., listed as COMPOUND IIa); 35 days (0.5 mg/kg, q4d × 3, i.v., listed as compound IIa); 52** day (1 mg/kg, q4d × 3, i.v., listed as COMPOUND IIa); 52 days (1 mg/kg, q4d × 3, i.v., listed as compound IIa). The “Regression, Day 13 (%)” value (1 mg/kg, q4d × 3, i.v.) is reported as 47%.
